Patent publication US8969573B2, “Compounds for the inhibition of cellular proliferation” (President and Fellows of Harvard College, priority 2010, dated 2015)
Like-named read-outs stand apart in the source and are kept apart here.

Key:
eIF4E/eIF4G interaction = eIF4E/eIF4G interaction (Homo sapiens, UniProt P06730); assay: Fluorescent polarization assay; assay type: binding; conditions: FITC eIF4G peptide and recombinant eIF4E, ratio to Z (4EGI-1 = 1)
Protocol: The difference between the two measurement yields net polarization which is considered full signal of the assay (100% control). […] The activity of compound at each concentration is determined by comparing the fluorescent polarization (FP) signal in the presence of compound to the control (no compound) value. The percent inhibition is =100-((FP compound/FP control)*100).

[1] = system: CRL2351 human breast cancer; assay: SRB assay (inhibition of cell proliferation); assay type: cell-based; conditions: CRL2351 human breast cancer cells
Excerpt: (§1) A sulfur rhodamine B (SRB) assay was used to determine the extent of inhibition of cell proliferation as a measure of the anti-cancer activity of compounds of the present disclosure. The reagent SRB binds to cellular proteins and absorbs light proportionally to the cellular protein content, which is a surrogate marker for the number of cells. According to aspects of the present disclosure, the assay can be used to with any cancer cell line including breast cancer cell lines, prostate cancer cell lines, melanoma cell lines, lung cancer cell lines or any other cell lines of the cancers described herein.
(§2) The following protocol was used to determine the growth characteristics of certain cell lines CRL2351 human breast cancer and CRL2813 human melanoma from which cell lines having doubling times less than 48 hours were selected for growth inhibition experiments. […] The following materials were used in addition to the cancel cell lines: complete (5% fetal calf serum added) tissue culture media, 96-well tissue culture plates, Sulforhodamine B dye (SRB, 0.57% w/w), […] (TCA, 10%), acetic acid glacial (1%) and 10 mM Tris base. The cells were prepared and plated. Cancer cells were grown to 80% confluency in an incubator. The cells were trypsinized per standard protocol or as needed for each cell line. The trypsin was neutralized, cells dissociated and counted. Each cell line was plated at a density of 500, 1000 and 3000 cells per well (six wells each) in five separate plates. The cells were then returned to the incubator. One plate was then removed each day starting day one after plating. 100 μl of 10% TCA was then added and the cells were fixed at 4° C. until all the cells were fixed. […] The cell growth for vehicle treatment is considered to be 100%. The optical density was then measured and plotted for each starting cell number and cell line against time. The percent cell growth inhibition was calculated as 100 minus the % of control cell growth. The % of control cell growth=((mean OD sample−Mean OD day 0)/(mean OD vehicle−Mean OD day 0))*100.

CRL2813 human melanoma = assay: SRB assay (inhibition of cell proliferation); assay type: cell-based
Excerpt: as §1, §2

[2] = Homo sapiens, summary table, read-out: IC50 [μM} CRL2351
[3] = Homo sapiens, CRL2813, CRL2813 human melanoma cells, summary table, read-out: IC50 [μM} CRL2813
[4] = summary table, read-out: IC50 [μM} CRL2351
[5] = CRL2813 human melanoma cells, summary table, read-out: IC50 [μM} CRL2813
[6] = Homo sapiens, Tables 1, 4, 5, read-out: SRB-IC50 (μM) 2351
[7] = Homo sapiens, CRL2813, CRL2813 human melanoma cells, Tables 1, 4, 5, read-out: SRB-IC50 (μM) 2813

Sequence of eIF4E/eIF4G interaction (P06730 whole entry): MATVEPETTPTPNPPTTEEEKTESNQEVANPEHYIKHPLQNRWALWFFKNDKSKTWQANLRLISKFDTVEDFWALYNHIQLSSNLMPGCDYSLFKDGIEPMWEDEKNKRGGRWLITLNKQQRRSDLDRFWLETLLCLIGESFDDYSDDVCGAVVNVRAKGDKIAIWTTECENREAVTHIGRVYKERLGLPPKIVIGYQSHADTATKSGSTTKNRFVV

SMILES	Fp (ratio to Z) (eIF4E/eIF4G interaction)	IC50 [1, 2]	IC50 (CRL2813 human melanoma; [3])	IC50 [1, 4]	IC50 (CRL2813 human melanoma; [5])	IC50 [1, 6]	IC50 (CRL2813 human melanoma; CRL2813 human melanoma cells, Tables 1, 4, 5, read-out: SRB-IC50 (μM) 2813)	IC50 (CRL2813 human melanoma; [7])
COc1ccc(-c2nc(N/N=C(\Cc3ccccc3[N+](=O)[O-])C(=O)O)sc2-c2ccc(I)cc2)cc1 [KY-613S]	1.1	9.5 µM	2.7 µM					
CCCc1sc(N/N=C(/Cc2ccccc2[N+](=O)[O-])C(=O)O)nc1-c1ccc(OC)cc1 [KY-582S]	0.9	13.2 µM	11.6 µM					
COc1ccc(-c2sc(N/N=C(/Cc3ccccc3[N+](=O)[O-])C(=O)O)nc2-c2ccc(-c3ccccc3)cc2)cc1 [KY-577SF, 2-{[4-Biphenyl-4-yl-5-(4-methoxy-phenyl)-thiazol-2-yl]-hydrazono}-3-(2-nitro-phenyl)-propionic acid]	1			0.7 µM	0.1 µM			
[N-]=[N+]=NCCCOc1ccc(-c2csc(N/N=C(/Cc3ccccc3[N+](=O)[O-])C(=O)O)n2)cc1 [KH-167s]	0.91			2.7 µM	12 µM	2.8 µM	11.9 µM	
O=C(O)/C(Cc1c(Br)cccc1[N+](=O)[O-])=N/Nc1nc(-c2ccc(Cl)c(Cl)c2)cs1 [RYF-339F]	2.0	< 0.54 µM	1 µM					
[N-]=[N+]=NC/C(=N\Nc1nc(-c2ccc(Cl)c(Cl)c2)cs1)C(=O)O [KY-757-p, (E)-3-azido-2-(2-(4-(3,4-dichlorophenyl)thiazol-2-yl)hydrazono) propanoic acid]	1	> 20 µM	> 20 µM					
O=C(O)/C(Cc1ccccc1[N+](=O)[O-])=N/Nc1nc(-c2ccc(OC(F)(F)F)cc2)cs1 [KY-627S]	0.65	> 20 µM	> 20 µM					
O=C(O)C(Cc1ccccc1[N+](=O)[O-])=NNc1nc(-c2cc(Br)cc(Br)c2O)cs1 [KH-102BIIs]	0.69			18 µM	20.5 µM			
COc1ccc(-c2csc(NN=C(Cc3ccccc3[N+](=O)[O-])C(=O)O)n2)cc1 [EK-B2]	0.86	7 µM	11 µM					
[N-]=[N+]=NCCCCOc1ccc(-c2csc(NN=C(Cc3ccccc3[N+](=O)[O-])C(=O)O)n2)cc1 [KH-113s]	1.05	12 µM	12.6 µM			11 µM		12.5 µM
COc1ccc(-c2sc(N/N=C(/Cc3ccccc3[N+](=O)[O-])C(=O)O)nc2-c2ccc(OC(C)C)cc2)cc1 [KY-599S]	1.3	8.7 µM	3 µM					
COc1ccc(-c2nc(NN=C(Cc3ccccc3[N+](=O)[O-])C(=O)O)sc2-c2ccc(Cl)cc2)cc1 [KY-355PR]	1.1	> 20 µM	3 ± 0.18 µM					
O=C(O)/C(Cc1ccccc1)=N/Nc1nc(-c2ccc(Cl)c(Cl)c2)cs1 [KY-706bc]	0.65	3.5 µM	3 µM					
O=C(O)/C(Cc1ccc([N+](=O)[O-])cc1)=N\Nc1nc(-c2ccc(Cl)c(Cl)c2)cs1 [KY-755-p]	1	15 µM	5 µM					
O=C(O)/C(Cc1c[nH]c2ccccc12)=N\Nc1nc(-c2ccc(Cl)c(Cl)c2)cs1 [KY-753, (Z/E)-2-(2-(4-(3,4-dichlorophenyl)thiazol-2-yl)hydrazono)-3-(1H-indol-3-yl)propanoic acid]	0.85	13.5 µM	7.5 µM					
[N-]=[N+]=NCCCOc1ccc(-c2csc(N/N=C(/Cc3ccccc3[N+](=O)[O-])C(=O)O)n2)cc1 [KH-167f]	1.04		18.6 µM	> 20 µM				18.6 µM
COc1ccc(-c2nc(NN=C(Cc3ccccc3[N+](=O)[O-])C(=O)O)sc2-c2ccc(N=[N+]=[N-])cc2)cc1 [KY-379S]	1.2	1.2 ± 0.04 µM	3 ± 0.2 µM					
CCOc1ccc(-c2nc(N/N=C(/Cc3ccccc3[N+](=O)[O-])C(=O)O)sc2-c2ccc(OC)cc2)cc1 [KY-576F]	1			2 µM	2 µM			
COc1ccc(-c2sc(N/N=C(/Cc3ccccc3[N+](=O)[O-])C(=O)O)nc2-c2ccc(-c3ccccc3)cc2)cc1 [KY-577S, 2-{[4-Biphenyl-4-yl-5-(4-methoxy-phenyl)-thiazol-2-yl]-hydrazono}-3-(2-nitro-phenyl)-propionic acid]	1			11.7 µM	3.5 µM			
COc1ccc(-c2nc(NN=C(Cc3ccccc3[N+](=O)[O-])C(=O)O)sc2-c2ccc(Cl)cc2)cc1OC [KY-353PR]	0.7	> 20 µM	> 20 µM					
COc1ccc(-c2sc(N/N=C(/Cc3ccccc3[N+](=O)[O-])C(=O)O)nc2-c2ccc(C3CCCCC3)cc2)cc1 [KY-612S]	1.8	11 µM			0.3 µM			
COc1ccc(-c2sc(NN=C(Cc3ccccc3[N+](=O)[O-])C(=O)O)nc2-c2ccc(OC)c(OC)c2)cc1 [KY-343PR]	1	> 20 µM	> 20 µM					
COc1ccc(-c2cn(-c3ccc(-c4sc(NN=C(Cc5ccccc5[N+](=O)[O-])C(=O)O)nc4-c4ccc(OC)cc4)cc3)nn2)cc1 [KY-445]	1	> 20 µM	13 ± 0.82 µM					
COc1ccc(-c2sc(N/N=C(\Cc3ccccc3[N+](=O)[O-])C(=O)O)nc2-c2ccc(SC)cc2)cc1 [KY-611-pri-S]	0.62	15.5 µM	6.2 µM					
[N-]=[N+]=NCCCOc1ccccc1-c1csc(N/N=C(/Cc2ccccc2[N+](=O)[O-])C(=O)O)n1 [KH-170]	0.92	0.8 µM	14.5 µM			0.8 µM		16.5 µM
Br.CCN(CC)c1ccc(-c2csc(N/N=C(\Cc3ccccc3[N+](=O)[O-])C(=O)O)n2)cc1 [KY-615S]	4		12.5 µM	> 20 µM				
COc1ccc(-c2nc(N/N=C(\Cc3ccccc3[N+](=O)[O-])C(=O)O)sc2-c2ccc(-c3ccccc3)cc2)cc1 [KY-435-S]	2			< 0.54 µM	< 0.54 µM			
COc1ccc(-c2nc(N/N=C(\Cc3ccccc3[N+](=O)[O-])C(=O)O)sc2-c2cccc(-n3cc(CO)nn3)c2)cc1 [KY-467F]	0.7	> 20 µM	> 20 µM					
COc1ccc(-c2nc(NN=C(Cc3ccccc3[N+](=O)[O-])C(=O)O)sc2-c2ccc(OC)cc2)cc1 [KY-323B]	0.6			20 ± 3.7 µM	7 ± 2.6 µM			
COc1ccc(-c2nc(NN=C(Cc3ccccc3[N+](=O)[O-])C(=O)O)sc2-c2ccc(-n3cc(-c4cccc(O)c4)nn3)cc2)cc1 [KY-441]	1.2	> 20 µM	15 ± 1.12 µM					
